Laboratory results: PMC5312529 (BMC Cancer, 2017)
Where two headings read alike, the source gives them in different places. Marks after values point to notes of the source that are not given here.

Tests used:
[1] = test system: patients with advanced solid tumors; details: cited from earlier work
genomic DNA = test: Nucleoside analog DNA incorporation assay (gemcitabine/dFdC in genomic DNA); assay type: in vivo, human
[2] = test system: Stage II-IV locally advanced or metastatic pancreatic cancer; test: Phase II randomized trial: overall survival, PFS, response (RECIST v 1.1); assay type: in vivo, human
Excerpt: Adult patients who had given informed consent had adequate hematological, liver, and renal functions; histological or cytological evidence of a diagnosis of Stage II or III adenocarcinoma of the pancreas not amenable to resection with curative intent or Stage IV disease; and an Eastern Cooperative Oncology Group performance status (ECOG PS) 0–2. Patients with previous radical surgery for pancreatic cancer were eligible after progression was documented.
(§1) Prior to enrollment, the study protocol, patient informed consent, and any other written study documentation were approved by an ethics committee. This trial was conducted in accordance with the Declaration of Helsinki and the Good Clinical Practice Guidelines of the International Conference on Harmonization. Phase II of this open-label, multicenter, randomized, 2-arm, Phase I/II trial was conducted in patients with locally advanced or metastatic pancreatic cancer. […] Patients continued on treatment until disease progression, unacceptable toxicity, or patient unwillingness to participate.
In addition to the Bayesian model, frequentist analysis of OS was also performed as a sensitivity analysis. The definition of secondary efficacy variables was consistent with standard conventions per RECIST (v 1.1).

[3] = test system: patients with locally advanced or metastatic pancreatic cancer; test: Patient disposition and treatment exposure; assay type: in vivo
Method: as §1
The first patient was enrolled on 26 February 2009.

[4] = test system: carbohydrate antigen 19–9 (CA19-9); test: CA19-9 biomarker response; assay type: in vivo, human; details: patients with baseline CA19-9 > upper limit of normal
Excerpt: Exploratory analyses included: change from baseline in tumor size and carbohydrate antigen 19–9 (CA19-9) levels, and changes in QTcF from electrocardiograms (ECG) obtained at baseline and after LY2603618 administration on days 2 and 16 during cycle one. […] A sample for CA–19–9 analysis was collected at the start of each cycle.

[5] = test system: patients with locally advanced or metastatic pancreatic cancer; test: Safety: treatment-emergent adverse events graded by CTCAE v 3.0; assay type: in vivo, human
Method: as §1
All patients who received at least one dose of study drug were evaluated for safety and toxicity. AE severity was graded using the Common Terminology Criteria for AEs (CTCAE) v 3.0.

[6] = test system: metastatic pancreatic adenocarcinoma; parameters: method as in PMID 21969517; details: MPACT; cited from earlier work
[7] = LY2603618 plasma pharmacokinetics, noncompartmental analysis; assay type: in vivo, human; details: for Cmax / AUC(0-inf) / AUC(0-t) / clearance / Vd / half-life: 230 mg; for Cmax: read-out: Cmax, Geometric Mean (CV%); for AUC(0-inf): read-out: AUC(0-∞), Geometric Mean (CV%); for AUC(0-t): read-out: AUC(0–24), Geometric Mean (CV%); for clearance: read-out: CL, Geometric Mean (CV%) (converted); for Vd: read-out: Vss, Geometric Mean (CV%); for half-life: read-out: t1/2, Geometric Mean (CV%) (converted)
Method: LY2603618 concentrations were quantified using a validated high-pressure liquid chromatography/mass spectrometry/mass spectrometry method. Whole blood samples were collected following the LY2603618 infusion on days 2 and 16 of cycle 1 before the start (<10 min) of infusion; immediately prior to the end of infusion (<5 min); and at 1, 3, and 24 h after the end of infusion. LY2603618 PK parameters were computed from the plasma concentration versus time data by standard noncompartmental analyses (Phoenix WinNonlin version 6.3, Pharsight, A Certara Company®; Princeton, NJ, USA).

[8] = test system: Fridericia’s heart rate-corrected QT interval (QTcF); test: Exploratory QTcF assessment from electrocardiograms; assay type: in vivo, human; details: ECG at baseline and after LY2603618 on days 2 and 16 of cycle one
Excerpt: Exploratory analyses included: change from baseline in tumor size and carbohydrate antigen 19–9 (CA19-9) levels, and changes in QTcF from electrocardiograms (ECG) obtained at baseline and after LY2603618 administration on days 2 and 16 during cycle one.

HT-29 xenograft models = test system: HT-29 xenograft models; parameters: method as in data on file; details: nonclinical HT-29 xenograft models; ref data on file; cited from earlier work
[9] = test system: patients with solid tumors; parameters: method as in PMID 27598338; details: in combination with gemcitabine; cited from earlier work
[10] = study drug-related TEAE, any grade
[11] = 230 mg LY2603618, Cycle 1 Day 2
[12] = 230 mg LY2603618, Cycle 1 Day 16
[13] = 230 mg LY2603618, days 2 and 16 of cycle 1
[14] = human, plasma, intravenous, 230 mg LY2603618, Cycle 1 Day 2
[15] = human, plasma, intravenous, 230 mg LY2603618, Cycle 1 Day 16

Structure (SMILES): NC(=O)Nc1cc(-c2cccc(F)c2)sc1C(=O)N[C@H]1CCCNC1 [AZD7762]
- Toxicity observed in Phase 1 study [1]: unpredictable cardiac toxicity was observed

Structure (SMILES): Nc1ccn([C@@H]2O[C@H](CO)[C@@H](O)C2(F)F)c(=O)n1 [Gemcitabine, gemcitabine]
- dFdC levels incorporated into DNA over the treatment cycle (genomic DNA; following gemcitabine administration): declining to almost baseline by the end of each treatment cycle
- Median overall survival (OS) ([2]; ITT population, frequentist analysis): 8.3 months
- Best Overall Response: CR ([2]; in vivo): 0 n (%; 95% CI)
- Best Overall Response: PR ([2]; in vivo): 3 (8.8%; 1.9–23.7) n (%; 95% CI)
- Best Overall Response: SD ([2]; in vivo): 19 (55.9%; 37.9–72.8) n (%; 95% CI)
- Clinical Benefit Rate ([2]; in vivo): 22 (64.7%; 46.5–80.3) n (%; 95% CI)
- Clinical benefit rate ([2]; in vivo): 64.7%
- Duration of response, Median (range) ([2]; in vivo): 6.0 (3.7–6.8) mos.
- Percentage of patients with partial response (PR) ([2]; in vivo): 8.8%
- Study discontinuation due to death ([3]; ITT population): 2.9%
- Study discontinuation due to progressive disease ([3]; ITT population): 61.8%
- Study discontinuation due to AE ([3]; human, in vivo): 17.6%
- Patients with >50% reduction from baseline in CA19-9 levels [4]: 64%
- Events leading to discontinuation that were possibly related to treatment ([5]; among patients who discontinued due to AEs): four
- Study drug-related treatment-emergent AEs (TEAEs), patients ([5]; any grade): 91.2%
- Patients with ≥1 TEAE (study drug-related) ([5]; any grade, safety population): 31 (91.2) n (%)
- Patients who discontinued the study due to AEs ([5]; in vivo): 6 n
- Serious adverse events (SAE) related to study treatment, patients ([5]; in vivo): 23.5%
- Alopecia [5, 10]: 4 (11.8) n (%)
- Anemia [5, 10]: 9 (26.5) n (%)
- Asthenia [5, 10]: 5 (14.7) n (%)
- Constipation [5, 10]: 3 (8.8) n (%)
- Decreased appetite [5, 10]: 3 (8.8) n (%)
- Diarrhea [5, 10]: 3 (8.8) n (%)
- Fatigue [5, 10]: 10 (29.4) n (%)
- Leukopenia [5, 10]: 5 (14.7) n (%)
- Nausea [5, 10]: 8 (23.5) n (%)
- Neutropenia [5, 10]: 9 (26.5) n (%)
- Oedema peripheral [5, 10]: 2 (5.9) n (%)
- Patients who experienced anemia [5, 10]: 26.5%
- Pyrexia [5, 10]: 5 (14.7) n (%)
- Stomatitis [5, 10]: 1 (2.9) n (%)
- Thrombocytopenia [5, 10]: 14 (41.2) n (%)
- Vomiting [5, 10]: 3 (8.8) n (%)
- Decreased hemoglobin ([5]; study drug-related, Grade 3): 4 (11.8) n (%)
- Decreased leukocytes ([5]; study drug-related, Grade 3): 1 (2.9) n (%)
- Decreased platelets ([5]; study drug-related, Grade 3): 3 (8.8) n (%)
- Dehydration ([5]; study drug-related, Grade 3): 2 (5.9) n (%)
- Fatigue ([5]; study drug-related, Grade 3): 3 (8.8) n (%)
- Hyponatremia ([5]; study drug-related, Grade 3): 2 (5.9) n (%)
- Patients with ≥1 TEAE ([5]; study drug-related, Grade 3): 19 (55.9) n (%)
- Thrombotic microangiopathy ([5]; study drug-related, Grade 3): 2 (5.9) n (%)
- Decreased hemoglobin ([5]; study drug-related, Grade 4): 0 n (%)
- Decreased leukocytes ([5]; study drug-related, Grade 4): 1 (2.9) n (%)
- Decreased platelets ([5]; study drug-related, Grade 4): 1 (2.9) n (%)
- Dehydration ([5]; study drug-related, Grade 4): 0 n (%)
- Fatigue ([5]; study drug-related, Grade 4): 0 n (%)
- Hyponatremia ([5]; study drug-related, Grade 4): 0 n (%)
- Patients with ≥1 TEAE ([5]; study drug-related, Grade 4): 3 (8.8) n (%)
- Thrombotic microangiopathy ([5]; study drug-related, Grade 4): 0 n (%)
- Median OS [6]: 6.7 months

Structure (SMILES): Cc1cnc(NC(=O)Nc2cc(Br)c(C)cc2OC[C@@H]2CNCCO2)cn1 [LY2603618]
- AUC(tlast-∞), Geometric Mean (CV%) [7, 11]: 14.3 (131) ^d %
- Cav,24, Geometric Mean (CV%) [7, 11]: 966 (68) ^d ng/mL
- AUC(tlast-∞), Geometric Mean (CV%) [7, 12]: 12.0 (152) ^e %
- Cav,24, Geometric Mean (CV%) [7, 12]: 987 (60) ^e ng/mL
- tmax, Median (range) [7, 12]: 1.00 (0.88–1.83) h
- Individual PK profiles above the target for AUC(0-∞) (≥21,000 ng hr/mL) [7, 13]: 73%
- Individual PK profiles above the target for Cmax (≥2000 ng/mL) [7, 13]: 87%
- Cmax ([7]; human, plasma, intravenous, 230 mg LY2603618 1-h infusion ~24 h after gemcitabine, Cycle 1 Day 2): 3170 ng/mL
- AUC(0-inf) [7, 14]: 29400 ng·h/mL
- AUC(0-t) [7, 14]: 23200 ng·h/mL
- clearance [7, 14]: 130 mL/min
- Vd [7, 14]: 104 L
- half-life [7, 14]: 9.67 h
- AUC(0-inf) [7, 15]: 29100 ng·h/mL
- AUC(0-t) [7, 15]: 23700 ng·h/mL
- clearance [7, 15]: 131 mL/min
- Cmax [7, 15]: 3410 ng/mL
- Vd [7, 15]: 95.1 L
- half-life [7, 15]: 8.86 h
- Tmax ([7]; human, plasma, intravenous, 230 mg LY2603618, Cycle 1 Day 2, read-out: tmax, Median (range)): 1 h
- Patients with change in QTcF from baseline >60 msec [8]: no patients
- Patients with change in QTcF from baseline between 30 and 60 msec [8]: Five
- Trends in ECG parameter changes (time-point QTcF assessment) [8]: no clinically significant trends
- Relation of increases in dFdC incorporation into DNA to LY2603618 dose (genomic DNA; in vivo): did not correspond to increasing doses of LY2603618
- Effect of the addition of LY2603618 on the safety profile of gemcitabine ([5]; in vivo): did not significantly change the safety profile of gemcitabine
- Plasma systemic exposure target AUC(0-∞) that correlates with maximal pharmacodynamic effect (HT-29 xenograft models): ≥ 21,000 ng hr/mL
- Plasma systemic exposure target Cmax that correlates with maximal pharmacodynamic effect (HT-29 xenograft models): ≥ 2000 ng/mL
- Recommended Phase II dose [9]: 230 mg
